Structures are written as SMILES.

Broadly, the IC50 is the point on the concentration scale where inhibition reaches its midpoint.

For the first assay, the target named is IDH1 R132H (Homo sapiens, UniProt O75874, R132H). In words: Assay for IDH1 R132H inhibitors (NADPH/aKG, resazurin detection). It counts as biochemical. The following applies: Table 3; enzyme assay, 50 minutes at room temperature; read-out: IC50 (IDH1 R132H Inhibition). The method, then: Assays were conducted in a volume of 76 μl assay buffer (150 mM NaCl, 10 mM MgCl2, 20 mM Tris pH 7.5, 0.03% bovine serum albumin) as follows in a standard 384-well plate: To 25 ul of substrate mix (8 uM NADPH, 2 mM aKG), 1 μl of test compound was added in DMSO. The plate was centrifuged briefly, and then 25 μl of enzyme mix was added (0.2 μg/ml IDH1 R132H) followed by a brief centrifugation and shake at 100 RPM. The reaction was incubated for 50 minutes at room temperature, then 25 μl of detection mix (30 μM resazurin, […]) was added and the mixture further incubated for 5 minutes at room temperature. The conversion of resazurin to resorufin was detected by fluorescent spectroscopy at Ex544 Em590 c/o 590.
Chain of IDH1 R132H (O75874 whole entry R132H): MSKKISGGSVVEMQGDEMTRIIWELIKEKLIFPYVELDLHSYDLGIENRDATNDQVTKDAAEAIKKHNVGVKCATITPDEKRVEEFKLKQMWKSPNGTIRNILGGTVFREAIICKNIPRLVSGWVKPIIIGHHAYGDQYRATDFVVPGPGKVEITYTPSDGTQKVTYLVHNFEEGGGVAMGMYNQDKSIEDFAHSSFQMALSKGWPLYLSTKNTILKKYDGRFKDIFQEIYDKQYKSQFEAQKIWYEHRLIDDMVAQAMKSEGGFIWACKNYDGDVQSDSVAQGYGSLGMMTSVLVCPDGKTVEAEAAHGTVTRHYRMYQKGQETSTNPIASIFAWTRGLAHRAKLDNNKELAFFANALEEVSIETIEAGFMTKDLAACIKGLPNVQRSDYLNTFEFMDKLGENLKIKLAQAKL
For the molecule `COCCC(=O)N1CCN(c2nc(C(C)C)c(-c3ccc(OC)cc3)cc2C#N)C[C@H]1C` [Compound 214, (R)-6-isopropyl-5-(4-methoxyphenyl)-2-(4-(3-methoxypropanoyl)-3-methylpiperazin-1-yl)nicotinonitrile], the 50% inhibitory concentration (IC50) fell in the range of 1 to 5 µM. Same read-out and setting: in the case of `CC(C)c1cc(-c2cccc(F)c2)c(C#N)c(N2CCN(C(=O)c3ccoc3)CC2)n1` [Compound 115, 4-(3-fluorophenyl)-2-(4-(furan-3-carbonyl)piperazin-1-yl)-6-isopropylnicotinonitrile] it was 1 to 5 µM. Same read-out and setting: the figure for `CC(C)c1cc(-c2ccccc2)c(C#N)c(N2CCN(C(=O)c3c[nH]c4ccccc34)CC2c2ccccc2)n1` (stereo not shown) [Compound 169, 2-(4-(1H-indole-3-carbonyl)-2-phenylpiperazin-1-yl)-6-isopropyl-4-phenylnicotinonitrile] is 1 to 5 µM; for `CC(C)c1cc(-c2ccccc2)c(C#N)c(N2CCN(C(=O)c3ccoc3)C(c3ccccc3)C2)n1` (stereo not shown) [Compound 154, 2-(4-(furan-3-carbonyl)-3-phenylpiperazin-1-yl)-6-isopropyl-4-phenylnicotinonitrile] it is 5 to 15 µM. Still for that read-out and setting: the figure for `Cc1occc1C(=O)N1CCN(c2nc(C(C)C)c(-c3ccc(F)cc3)cc2C#N)C[C@H]1C` [Compound 199, (R)-5-(4-fluorophenyl)-6-isopropyl-2-(3-methyl-4-(2-methylfuran-3-carbonyl)piperazin-1-yl)nicotinonitrile] is 1 to 5 µM; for `CC(C)c1nc(N2CCN(C(=O)c3ccoc3)[C@H](C)C2)c(C#N)cc1-c1cccc(F)c1` [Compound 161, (R)-5-(3-fluorophenyl)-2-(4-(furan-3-carbonyl)-3-methylpiperazin-1-yl)-6-isopropylnicotinonitrile] it is 1 to 5 µM; for `CC(C)c1cc(-c2ccccc2)c(C#N)c(N2CCN(C(=O)c3ccoc3)C(C)C2)n1` (stereo not shown) [Compound 110, 2-(4-(furan-3-carbonyl)-3-methylpiperazin-1-yl)-6-isopropyl-4-phenylnicotinonitrile] it is 1 to 5 µM.

For `COCCC(=O)N1CCN(c2nc(C3CC3)c(-c3ccc(OC)nc3)cc2C#N)C[C@H]1C` [Compound 252, (R)-2-cyclopropyl-6′-methoxy-6-(4-(3-methoxypropanoyl)-3-methylpiperazin-1-yl)-3,3′-bipyridine-5-carbonitrile], the IC50 is no more than 1 µM. Turning to `CC(C)c1nc(N2CCN(C(=O)c3ccoc3)[C@H](C(C)C)C2)c(C#N)cc1-c1ccc(C(F)(F)F)cc1` [Compound 195], the IC50 fell in the range of 1 to 5 µM. With `CC(C)c1nc(N2C[C@@H](C)N(C(=O)c3ccoc3)[C@@H](C)C2)c(C#N)cc1-c1ccccc1` [Compound 141, 2-((3S,5R)-4-(furan-3-carbonyl)-3,5-dimethylpiperazin-1-yl)-6-isopropyl-5-phenylnicotinonitrile], the IC50 is 5 to 15 µM. Regarding `COCCC(=O)N1CCN(c2nc(C3CC3)c(-c3cc4ccccc4s3)cc2C#N)C[C@H]1C` [Compound 247, (R)-5-(benzo[b]thiophen-2-yl)-6-cyclopropyl-2-(4-(3-methoxypropanoyl)-3-methylpiperazin-1-yl)nicotinonitrile], the half-inhibitory concentration (IC50) lay in the range of 1 to 5 µM. The same measure, in the same setting: the figure for `COCCC(=O)N1CCN(c2nc(C(C)C)c(-c3ccc(F)cc3)cc2C#N)C[C@H]1C` [Compound 207, (R)-5-(4-fluorophenyl)-6-isopropyl-2-(4-(3-methoxypropanoyl)-3-methylpiperazin-1-yl)nicotinonitrile] is no more than 1 µM.

In the case of `Cc1ccccc1-c1cc(C(C)C)nc(N2CCN(C(=O)c3ccoc3)[C@H](C)C2)c1C#N` [Compound 158], the IC50 lay within 1 to 5 µM.

Turning to `COCCC(=O)N1CCN(c2nc(C(C)C)c(-c3ccc4c(c3)OCCO4)cc2C#N)C[C@H]1C` [Compound 233, (R)-5-(2,3-dihydrobenzo[b][1,4]dioxin-6-yl)-6-isopropyl-2-(4-(3-methoxypropanoyl)-3-methylpiperazin-1-yl)nicotinonitrile], the IC50 was 1 to 5 µM. For `C[C@@H]1CN(c2nc(C3CCCCC3)cc(-c3ccccc3)c2C#N)C[C@H](C)N1C(=O)c1ccoc1` [Compound 142, 6-cyclohexyl-2-((3S,5R)-4-(furan-3-carbonyl)-3,5-dimethylpiperazin-1-yl)-4-phenylnicotinonitrile], the half-maximal inhibitory concentration (IC50) was in the range of 1 to 5 µM. Still for that read-out and setting: in the case of `Cc1occc1C(=O)N1CCN(c2nc(C(C)C)c(-c3ccoc3)cc2C#N)C[C@H]1C` [Compound 203, (R)-5-(furan-3-yl)-6-isopropyl-2-(3-methyl-4-(2-methylfuran-3-carbonyl)piperazin-1-yl)nicotinonitrile] it was 1 to 5 µM; in that of `CC(C)c1cc(-c2cccc(F)c2)c(C#N)c(N2CCN(C(=O)c3ccco3)C(C)C2)n1` (stereo not shown) [Compound 127, 4-(3-fluorophenyl)-2-(4-(furan-2-carbonyl)-3-methylpiperazin-1-yl)-6-isopropylnicotinonitrile], 5 to 15 µM.

The same assay, now with this note: enzyme assay of Example 12; read-out: IDH1R132H IC50.
As to `C[C@@H]1CN(c2nc(C3CC3)c(-c3ccc4ncoc4c3)cc2C#N)CCN1C(=O)C1CC1` [Compound 467, (R)-5-(benzo[d]oxazol-6-yl)-2-(4-(cyclopropanecarbonyl)-3-methylpiperazin-1-yl)-6-cyclopropylnicotinonitrile], the half-inhibitory concentration (IC50) lay within 0.5 to 1 µM. The same measure, in the same setting: in the case of `COCCC(=O)N1CCN(c2nc(C3CC3)c(OCc3ccc(OC)cc3)cc2C#N)C[C@H]1C` [Compound 281, (R)-6-cyclopropyl-5-(4-methoxybenzyloxy)-2-(4-(3-methoxypropanoyl)-3-methylpiperazin-1-yl)nicotinonitrile] it was 0.5 to 1 µM; in that of `C=Cc1ccnc(N(c2cc(C=C)ccn2)c2cc(C#N)c(N3CCN(C(=O)CCOC)[C@H](C)C3)nc2C2CC2)c1` [Compound 646, (R)-5-(bis(4-vinylpyridin-2-yl)amino)-6-cyclopropyl-2-(4-(3-methoxypropanoyl)-3-methylpiperazin-1-yl)nicotinonitrile], less than 0.5 µM; in that of `C[C@@H]1CN(c2nc(C3CC3)c(-c3cccc4cnccc34)cc2C#N)CCN1C(=O)[C@@H]1C[C@H]1CO` [Compound 505, 6-cyclopropyl-2-((R)-4-((1R,2R)-2-(hydroxymethyl)cyclopropanecarbonyl)-3-methylpiperazin-1-yl)-5-(isoquinolin-5-yl)nicotinonitrile], less than 0.5 µM. Same read-out and setting: in the case of `N#Cc1cc(Oc2cc(Cl)ccn2)c(C2CC2)nc1N1CCN(C(=O)CCO)[C@H](C2CC2)C1` [Compound 734, (R)-5-((4-chloropyridin-2-yl)oxy)-6-cyclopropyl-2-(3-cyclopropyl-4-(3-hydroxypropanoyl)piperazin-1-yl)nicotinonitrile] it was less than 0.5 µM. In the case of `COCCC(=O)N1CCN(c2nc(C3CC3)c(-c3cccc(S(C)(=O)=O)c3)c(C)c2C#N)C[C@H]1C` [Compound 329, (R)-6-cyclopropyl-5-(3-methanesulfonyl-phenyl)-2-[4-(3-methoxy-propionyl)-3-methyl-piperazin-1-yl]-4-methyl-nicotinonitrile], the 50% inhibitory concentration (IC50) lay within 0.5 to 1 µM. The same measure, in the same setting: in the case of `COCCC(=O)N1CCN(c2nc(C3CC3)c(Nc3ccnc(OC)c3)cc2C#N)C[C@H]1C` [Compound 682, (R)-6-cyclopropyl-2-(4-(3-methoxypropanoyl)-3-methylpiperazin-1-yl)-5-((2-methoxypyridin-4-yl)amino)nicotinonitrile] it was less than 0.5 µM. Still for that read-out and setting: the figure for `CC(C)(C)OC(=O)Nc1cnnc(-c2cc(C#N)c(N3CCN(C(=O)CCO)[C@H](C4CC4)C3)nc2C2CC2)c1` [Compound 723, (R)-tert-butyl(6-(5-cyano-2-cyclopropyl-6-(3-cyclopropyl-4-(3-hydroxypropanoyl)piperazin-1-yl)pyridin-3-yl)pyridazin-4-yl)carbamate] is less than 0.5 µM; for `N#Cc1cc(-c2cccc3nccnc23)c(C2CC2)nc1N1CCN(C(=O)CC(F)(F)F)[C@H](C2CC2)C1` [Compound 532, (R)-6-cyclopropyl-2-(3-cyclopropyl-4-(3,3,3-trifluoropropanoyl)piperazin-1-yl)-5-(quinoxalin-5-yl)nicotinonitrile] it is less than 0.5 µM; for `N#Cc1cc(-c2ccnc(Cl)c2F)c(C2CC2)nc1N1CCN(C(=O)C2CC2)[C@H](C2CC2)C1` [Compound 509, (R)-2′-chloro-6-(4-(cyclopropanecarbonyl)-3-cyclopropylpiperazin-1-yl)-2-cyclopropyl-3′-fluoro-3,4′-bipyridine-5-carbonitrile] it is 0.5 to 1 µM. `COCCC(=O)N1CCN(c2nc(C3CC3)c(-c3ccccc3CO)c(C)c2C#N)C[C@H]1C` [Compound 372, (R)-6-cyclopropyl-5-(2-hydroxymethyl-phenyl)-2-[4-(3-methoxy-propionyl)-3-methyl-piperazin-1-yl]-4-methyl-nicotinonitrile]: the 50% inhibitory concentration (IC50) was less than 0.5 µM.

On to `N#Cc1cncc(-c2cc(C#N)c(N3CCN(C(=O)C4CC4)[C@H](C4CC4)C3)nc2C2CC2)c1` [Compound 494, (R)-6-(4-(cyclopropanecarbonyl)-3-cyclopropylpiperazin-1-yl)-2-cyclopropyl-[3,3′-bipyridine]-5,5′-dicarbonitrile], for which the IC50 is less than 0.5 µM. The same measure, in the same setting: in the case of `CCc1ccccc1-c1c(C2CC2)nc(N2CCN(C(=O)CCOC)[C@H](C)C2)c(C#N)c1C` [Compound 359, (R)-6-cyclopropyl-5-(2-ethyl-phenyl)-2-[4-(3-methoxy-propionyl)-3-methyl-piperazin-1-yl]-4-methyl-nicotinonitrile] it was less than 0.5 µM; in that of `C[C@@H]1CN(c2nc(C3CC3)c(Oc3ccnc(Cl)c3)cc2C#N)CCN1C(=O)CCO` [Compound 704, (R)-5-((2-chloropyridin-4-yl)oxy)-6-cyclopropyl-2-(4-(3-hydroxypropanoyl)-3-methylpiperazin-1-yl)nicotinonitrile], less than 0.5 µM.

(Values after US9856279B2 (AGIOS PHARMACEUTICALS, INC, priority 2011, dated 2018).)
